Where no end group is shown, it is not given here. A value given as a limit tells only on which side of the number the result lay.

For one series, the system named is K562/MLL cells. As to the kind of experiment: Cell survival of K562/MLL cells by FSC/SSC gating in FACS. It is filed as cell-based. Particulars: for effect of peptide on cell survival after doxorubicin treatment: K562/MLL nucleofected with 0-600 μg peptide per 1×10^6 cells; for effect of peptide on cell survival after doxorubicin treatment / cell survival: 2 μM doxorubicin 4 h; for cell survival: 72 h; for toxic effects toward leukemia cells (summary statement): leukemia cells after doxorubicin treatment; for toxicity of the peptide in K562/MLL cells: K562/MLL nucleofected with different peptide concentrations, 2 μM doxorubicin. The protocol: (§1) K562/MLL cells were divided 1:2 before the start of the experiment and transfected with the plasmid (2×10^6 cells) or nucleofected with the peptide (1×10^6 cells) on the second day. After 24 h, the cells were then treated with 2 μM doxorubicin (Uniklinik Ulm, Germany) and after 4 h incubation, the cells were centrifuged, the supernatant discarded and the cells taken up in 2 ml PBS (Gibco/Thermo Fisher Scientific). After centrifugation again, the supernatant was discarded and the cells were seeded in 2 ml of new culture medium for 72 h.
Use of the fluorescence-based assay system for recombination measurements with K562/MLL or HeLa/MLL cells with chromosomally integrated plasmid pHR-EGFP/3′EGFP-MLLbcr.fwd is described in detail in Ireno et al. 2014 and Gole et al. 2015, respectively. For the acquisition of recombination data, cells were harvested, pelleted, resuspended in PBS and then re-sedimented. The cell pellets were stored on ice and resuspended in PBS (mixed with 0.2% EDTA) only shortly before FACS measurement. This suspension was transferred to FACS tubes and the fluorescence of the cells was detected on the FACSCalibur™ (BD Biosciences, San Jose, California, USA). To achieve a separation between living and dead cells, the cell clouds were plotted linearly against FSC/SSC orientation in a dot plot diagram. Depending on cell size and granularity, the living cells were distinguished from cell debris and dead cells by placing a marker (gate) around the “living cell cloud”. Subsequently, the selected cell population was separated in another dot-plot diagram with FL-1/FL-2 alignment depending on their fluorescence properties (FL-1 for green fluorescence, FL-2 for orange intrinsic fluorescence). Depending on the approach, 150,000 to 1,000,000 living cells were analyzed. Recombination frequencies were determined from the proportion of green fluorescent cells in the living cell population.
K562/MLL cells were electroporated with these expression plasmids for the different Ku80 variants or the empty vector (control) and 24 h later treated for 4 h with the chemotherapeutic agent doxorubicin (2 μM). After washing the cells, they were cultured in fresh medium for a further 72 h. The subsequent detection of green fluorescent cells for analysis of recombination frequencies was achieved by FACS using a diagonal gate in a FL-1/FL-2 dot plot diagram. Living cells were pre-selected by FSC/SSC gating to distinguish between EGFP-positive and -negative within the living cells.
The peptides were introduced into K562/MLL cells by Nucleofector™ technology as described above. The cells were nucleofected with 0-600 μg peptide per 1×10^6 cells and treated with 2 μM doxorubicin for 4 h after 24 h. After washing, the cells were cultured for another 72 h in fresh medium. […] Subsequently, recombination frequencies were determined.
Cell survival was determined in parallel with the recombination measurements.

The test system of a further series is HeLa/MLL cells. Briefly: Cell survival of HeLa/MLL cells by FSC/SSC gating in FACS. As to conditions: HeLa/MLL nucleofected with peptide; 0.5 μM doxorubicin 4 h; 72 h. It is filed as cell-based, human. The protocol:
HeLa/MLL cells (0.5×10^6) were nucleofected with the peptide on the first day and split into three 6-wells for further cultivation. On the second day, the cells were treated with 0.5 μM doxorubicin for 4 h. […]. Afterwards, the medium was removed, the cells were washed with 2 ml PBS and 2 ml new medium was added. For FACS measurements, the cells were washed with PBS after 72 h of culture, 200 μl of trypsin (PAN Biotech, Aidenbach, Germany) was added and the reaction was stopped with medium. Genomic DNA was isolated without recultivation after doxorubicin treatment.
Use of the fluorescence-based assay system for recombination measurements with K562/MLL or HeLa/MLL cells with chromosomally integrated plasmid pHR-EGFP/3′EGFP-MLLbcr.fwd is described in detail in Ireno et al. 2014 and Gole et al. 2015, respectively. […] This suspension was transferred to FACS tubes and the fluorescence of the cells was detected on the FACSCalibur™ (BD Biosciences, San Jose, California, USA). […] Subsequently, the selected cell population was separated in another dot-plot diagram with FL-1/FL-2 alignment depending on their fluorescence properties (FL-1 for green fluorescence, FL-2 for orange intrinsic fluorescence). Depending on the approach, 150,000 to 1,000,000 living cells were analyzed. […]

Series [1] has as its system MLLbcr rearrangements in K562/MLL cells. Briefly: Fluorescence-based (EGFP reconstitution) recombination assay for MLLbcr rearrangements in K562/MLL cells after doxorubicin. It is filed as cell-based, human. Particulars: expression plasmid electroporated into K562/MLL; 2 μM doxorubicin 4 h after 24 h; 72 h culture; vs empty vector control set to 100%. The protocol: as §1
Use of the fluorescence-based assay system for recombination measurements with K562/MLL or HeLa/MLL cells with chromosomally integrated plasmid pHR-EGFP/3′EGFP-MLLbcr.fwd is described in detail in Ireno et al. 2014 and Gole et al. 2015, respectively. For the acquisition of recombination data, cells were harvested, pelleted, resuspended in PBS and then re-sedimented. The cell pellets were stored on ice and resuspended in PBS (mixed with 0.2% EDTA) only shortly before FACS measurement. This suspension was transferred to FACS tubes and the fluorescence of the cells was detected on the FACSCalibur™ (BD Biosciences, San Jose, California, USA). To achieve a separation between living and dead cells, the cell clouds were plotted linearly against FSC/SSC orientation in a dot plot diagram.

Where [2] appears, read: K562/MLL nucleofected with 50 μg peptide.
[3] abbreviates: K562/MLL nucleofected with 100 μg peptide.

As for `CC[C@H](C)[C@H](NC(=O)CNC(=O)[C@H](CC(=O)O)NC(=O)[C@H](CCC(N)=O)NC(=O)[C@@H](NC(=O)[C@@H](NC(=O)[C@@H](NC(=O)[C@@H](N)CCC(=O)O)[C@@H](C)CC)C(C)C)C(C)C)C(=O)N[C@H](C(=O)N[C@@H](CC(C)C)C(=O)N[C@H](C(=O)N[C@H](C(=O)N[C@@H](CCCCN)C(=O)N[C@@H](CCC(=O)O)C(=O)N[C@@H](CCC(=O)O)C(=O)N[C@@H](C)C(=O)N[C@@H](CO)C(=O)NCC(=O)N[C@@H](CO)C(=O)N[C@@H](CO)C(=O)N[C@H](C(=O)N[C@H](C(=O)N[C@@H](C)C(=O)N[C@@H](CCC(=O)O)C(=O)N[C@@H](CCC(=O)O)C(=O)N[C@@H](C)C(=O)N[C@@H](CCCCN)C(=O)N[C@@H](CCCCN)C(=O)O)[C@@H](C)O)C(C)C)[C@@H](C)O)[C@@H](C)CC)[C@@H](C)O` [Ku3], in the series with K562/MLL cells, the “effect of peptide on cell survival after doxorubicin treatment” value is “not affected”. Also, the cell survival result in the series with K562/MLL cells (setting [2]) and in the series with K562/MLL cells (setting [3]) was “not affected” in each case. Besides, in the series with K562/MLL cells, the “toxic effects toward leukemia cells (summary statement)” value is reported as “without exhibiting toxic effects”. The “effect on cell survival” value in the series with HeLa/MLL cells is recorded as “without affecting cell survival”.

As for `COc1cccc2c1C(=O)c1c(O)c3c(c(O)c1C2=O)C[C@@](O)(C(=O)CO)C[C@@H]3O[C@H]1C[C@H](N)[C@H](O)[C@H](C)O1` [doxorubicin, reference compound], the “cell survival after doxorubicin treatment” value with K562/MLL cells (human, 4 h, 2 μM) is 70-80%.

Turning to ASFEEASNQLINHIEQFLDTNETPYFMKSI [Ku4], in the series with K562/MLL cells, the “toxicity of the peptide in K562/MLL cells” value is recorded as “caused toxicities”. For the same molecule, the “reduction of cell survival after doxorubicin treatment to” value in the series on K562/MLL cells (K562/MLL nucleofected with ≥300 μg peptide) is “≥ half”.

Take “EIVVQDGITLITKAEASGSSVTAEEAKK [Ku3 mut1, reference compound]”: in the series with K562/MLL cells (setting [2]), the cell survival result is given as “not affected”.

For ITKEEASGSSVTAEEAKKFLA [SEQ ID No. 4], in the series on K562/MLL cells, the “toxic effects toward leukemia cells (summary statement)” value is “without exhibiting toxic effects”.

Turning to ITKEEASGSSVTAEEAKKFLAG [Ku1], in the series on K562/MLL cells, the “effect of peptide on cell survival after doxorubicin treatment” value was “did not affect cell survival”.

Take RVLVKQKKASFEEASNQLINHIEQFL [Ku2]: the “reduction of cell survival after doxorubicin treatment to” value with K562/MLL cells (K562/MLL nucleofected with 200-400 μg peptide) is on record as “≥ half”. The “toxicity of the peptide in K562/MLL cells” value with K562/MLL cells is “caused toxicities”.

On to “VDSTTIEKSIAEVAEEQESILKKVAGGT [scrambled peptide, reference compound]”, for which the cell survival result in the series on K562/MLL cells (setting [3]) is given as “not affected”.

B1: Ku80ct: Ku80 amino acids 592-709 fused behind the amino acids PTAKKLK of the nuclear localization signal, expressed from plasmid (protein, UniProt P13010 592-709, looked up, fragment)
chain: VNPAENFRVLVKQKKASFEEASNQLINHIEQFLDTNETPYFMKSIDCIRAFREEAIKFSEEQRFNNFLKALQEKVEIKQLNHFWEIVVQDGITLITKEEASGSSVTAEEAKKFLAPKD
modifications: N-terminal NLS peptide PTAKKLK
notes: Ku80 amino acids 592-709 fused behind the amino acids PTAKKLK of the nuclear localization signal, expressed from plasmid
Consider B1, for which the “MLLbcr rearrangements (recombination frequency) lowered by” value in series [1] is listed as 45%.

Values taken from patent US20250171753A1, “PEPTIDE AND USE THEREOF IN THE PREVENTION OF THERAPY-RELATED LEUKEMIA” (UNIVERSITÄT ULM, priority 2022, published 2025).
